Key:
[1] = test system: patient presenting with hyperthyroidism due to multinodular thyroid hyperplasia, and morning allergic rhinitis; test: Case No. 2: TSH / free T4 and allergic rhinitis in a patient with hyperthyroidism; type: in vivo, human; conditions: for course of hyperthyroidism / thyroid hormone level under treatment: a few days of Basdene, 10 days of Neomercazole; for TSH: normal 0.2 to 4; for T4f: normal 10 to 25
From the text: A patient presenting with hyperthyroidism due to multinodular thyroid hyperplasia, and morning allergic rhinitis.
The normal levels are 0.2 to 4 for TSH and 10 to 25 for T4f. The TSH is abnormally low and the free T4 abnormally high. The patient receives treatment with a synthetic thyroid inhibitor, namely Basdene 9 on its own, starting on February 22, at increasing doses of 1 tbl on the 1st day, 2 tbl on the 2nd day and then 3 tbl per day. on 3 March TSH: 0.02
On March 7, the patient is seen again by the consultant and, in place of Basdene®, Neo-mercazole® is prescribed at doses of 3 tbl 3 times a day:
On March, 20 the patient is seen again and the following is added to the Neo-mercazole treatment for the allergic rhinitis:
Natrium muriaticum 6DH, 3 tbl/1 for 7 days, then
Natrium muriaticum 4CH, 3 granules/1 for 15 days.
In order to know whether it is the Natrium muriaticum or the Neomercazole 9 which has normalized the thyroid functions, the Neo-mercazole® is suddenly withdrawn, which, if it is the Neo-mercazole® which has lowered the T4f, should have the effect of raising it immediately to 30, and the regular administration of Natrium muriaticum 4CH is continued on April 13.
Natrium muriaticum 6DH: 3tbl/day from March 20 to April 11, then Natrium muriaticum 4CH: 3 granules/day from April 11 to April 28. On April 28, the patient is seen again by the consultant and the prescribed dose of Natrium muriaticum is further modified, being increased to Natrium muriaticum 5CH: 3 granules a day. The Neo-mercazole® was of course never restarted. The effect of this change in doses of Natrium muriaticum is to further lower the thyroid hormone:
The following dose of Natrium Muriaticum 5CH is still continued from this time on: 3 granules a day.
There was no cancer on the operated part. On August 1 the result of this operation is a T4f of 13.8, which is now near the lower limit of the norm (the norm being 10 to 25). A tendency towards hypothyroidism might be feared.

[2] = test system: child suffering from juvenile chronic polyarthritis; test: Case No. 3: clinical course of juvenile chronic polyarthritis; type: in vivo, human; conditions: 1 tbl of 250 mg a day, before homeopathic treatment; disease worsens
[3] = on 17 March, after 10 days of Neo-mercazole 3 tbl 3 times a day

| Structure (SMILES) | course of hyperthyroidism / thyroid hormone level under treatment [1] | TSH ([1]; on 3 March, Basdene on its own from February 22, up to 3 tbl per day, 0.02 before treatment) | T4f ([1]; on 3 March, Basdene on its own from February 22, up to 3 tbl per day, 35 before treatment) | suppression of polyarticular symptoms [2] | TSH [1, 3] | T4f [1, 3] |
| --- | --- | --- | --- | --- | --- | --- |
| Oc1cc(Cc2ccccc2)nc(S)n1 [Basdene] | remained identical and even become slightly worse | 0.02 | 36.8 | – | – | – |
| COc1ccc2cc([C@H](C)C(=O)O)ccc2c1 [Naprosyn] | – | – | – | not sufficient to suppress the symptoms | – | – |
| CCOC(=O)n1ccn(C)c1=S [Neo-mercazole] | no improvement | – | – | – | 0.02 | 33.8 |

Source: patent US20020025314A1, “Homeopathic compositions for the treatment of viral and metabolic deseases” (priority 1992, published 2002)
